In PMC7483518, “Destabilizing single chain major histocompatibility complex class I protein for repurposed enterokinase proteolysis” (Scientific Reports, 2020):
Values joined by “and” are separate entries in the source; they are usually repeats but may differ in a detail not shown here. Identical values can stand only once. Like-named read-outs stand apart in the source and are kept apart here.

Columns and labels:
[1] = test system: HLA-A*11:01 single chain protein; format: biochemical, Human; parameters: EZ50kDa / EZ50kD (pH 6.2) / EZ50kD (pH 8) / EZ50kD (normalised: EBV1101 = 1, EBV0201 = 0) / EZ50kDa rank: unit not given beside the values; conditions: for EZ50kDa: Table 3, EGFR peptide library (n = 177, duplicated), pH 6.2, 37 °C, 14 h, enterokinase, Eq. (4); for vol: mean Adj. Volume of the 2 replicates; for Batch Mean: mean of the 2 replicates of EZ50kD; for EZ MHC-I stability with HLA-A*11:01 single chain protein: Fig. 2f,g, EGFR peptide library;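 for EZ50kDa: intact 50 kDa band volume scaled with positive control peptide as 1 and negative as 0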
[2] = target: photolabile unchained HLA-A*11:01 pMHC-I protein (Homo sapiens, UniProt P04439, A114D/D185E/E176A/F33Y/L180Q/S129P/T187R); assay: ELISA with photolabile unchained pMHC-I protein and UV irradiation; format: binding
[3] = target: T1, photo-labile unchained HLA-A*11:01 MHC-I protein (Homo sapiens, UniProt P04439, A114D/D185E/E176A/F33Y/L180Q/S129P/T187R); assay: Photo-labile unchained MHC-I protein treated with UV, peptides and enterokinase (SDS-PAGE band volume); format: biochemical; conditions: for vol: mean Adj. Volume of the 2 replicates; for Batch Mean: mean of the 2 replicates of EZ50kD
T1 construct: made in house

[4] = EGFR mutation peptide library and control peptides, HLA-A*11:01, mean, STDEV
[5] = EASY MHC-I A*11:01, gel 2019-07-17 lr1028-1036 5min, mean of 2 replicates
[6] = EASY MHC-I A*11:01, gel 2019-07-17 lr1028-1036 5min, replicate 1 (lanes 1-14)
[7] = EASY MHC-I A*11:01, gel 2019-07-17 lr1028-1036 5min, replicate 2 (lanes 15-28)
[8] = EASY MHC-I A*11:01, run 2019-08-08, 5min, mean of 2 replicates
[9] = EASY MHC-I A*11:01, 2019-07-25, mean of the 2 replicates
[10] = EASY MHC-I A*11:01, run 2019-08-06, 5min, mean of 2 replicates

Sequence: SLLDYVREHKDN [CS1050]
- EZ50kDa [1]: 0.0255 ± 0.005
- vol [1]: 7574013
- Batch Mean [1]: 0.08881
- EASY_mean [2]: 0.2031
- vol [3]: 12012525
- Batch Mean [3]: -2.24

Sequence: SLLDYVREHK [CS1027]
- EZ_mean [1]: 0.9134
- Norm_mean [1]: 1.317
- EZ50kDa [1]: 0.811 ± 0.171
- vol [1]: 29201845
- Batch Mean [1]: 0.7556
- EASY_mean [2, 4]: 0.7046
- vol [3]: 11075589
- Batch Mean [3]: -1.466

Sequence: QLMPFGSLLDY [CS1032]
- EZ_mean [1]: 0.8691
- Norm_mean [1]: 1.167
- EZ50kDa [1]: 0.869 ± 0.174
- vol [1]: 30217126
- Batch Mean [1]: 0.787
- EASY_mean [2, 4]: 0.7325
- vol [3]: 11215354
- Batch Mean [3]: -0.05053

Sequence: VAIKTSPKANK [EX1018, EGFR exon 19 deletion-derived peptide]
- EZ_mean ([1]; EASY MHC-I A*11:01, 2019-07-26, mean of the 2 replicates): 0.2216
- EZ50kDa [1]: 0.2 and 0.222 ± 0.010
- vol [1]: 9218005
- Batch Mean [1]: 0.1404
- EASY_mean ([2]; […], mean, STDEV): 0.2323
- vol [3]: 8041509
- Batch Mean [3]: 0.2261

Sequence: FGSLLDYVREHK [CS1048]
- vol [1]: 7729416
- Batch Mean [1]: 0.09362
- EASY_mean [2]: 0.1889
- vol [3]: 12972708
- Batch Mean [3]: 0.7597

Sequence: SLLDYVREH [CS1017]
- EZ_mean ([1]; EASY MHC-I A*11:01, 2019-08-01, mean of the 2 replicates): 0.7333
- EZ MHC-I stability with HLA-A*11:01 single chain protein [1]: strongly stabilizing
- EZ50kDa [1]: 0.733 ± 0.140
- vol [1]: 26057980
- Batch Mean [1]: 0.6595
- EASY_mean [2]: 0.4725
- vol [3]: 10431446
- Batch Mean [3]: -0.3978

Sequence: KITDFGRAKLL [LR1032]
- EZ_mean [1, 5]: 0.03523
- EZ50kD (normalised: EBV1101 = 1, EBV0201 = 0) [1, 6]: 0.01844
- Norm (50 kDa band adj. volume normalised: Undig_37C = 1, Dig_37C = 0) [1, 6]: -0.01259
- EZ50kD (normalised: EBV1101 = 1, EBV0201 = 0) [1, 7]: 0.05201
- Norm (50 kDa band adj. volume normalised: Undig_37C = 1, Dig_37C = 0) [1, 7]: 0.03105
- EZ50kDa [1]: 0.0352 ± 0.024
- EASY_mean [2]: 0.009234

Sequence: QLIMQLMPFGC [TM1035]
- EZ_mean [1]: -0.1197
- EASY_mean ([2]; ELISA signal, mean, […]): -0.06893

Sequence: STVQLIMQLM [TM1021]
- EZ_mean [1, 8]: -0.03318
- Norm_mean [1, 8]: -0.01917
- EASY_mean ([2]; […], mean, STDEV): -0.01593

Sequence: TVQLIMQLMP [TM1022]
- EZ_mean [1, 8]: -0.0531
- Norm_mean [1, 8]: -0.04425
- EASY_mean ([2]; ELISA signal, mean, […]): -0.01505

Sequence: SLLDYVRE [CS1008]
- EZ_mean [1]: -0.06325
- EASY_mean [2]: -0.02238

Sequence: TDFGRAKLLGA [LR1034]
- EZ_mean [1, 5]: -0.04886
- EZ50kD (normalised: EBV1101 = 1, EBV0201 = 0) [1, 6]: -0.06534
- Norm (50 kDa band adj. volume normalised: Undig_37C = 1, Dig_37C = 0) [1, 6]: -0.06378
- EZ50kD (normalised: EBV1101 = 1, EBV0201 = 0) [1, 7]: -0.03237
- Norm (50 kDa band adj. volume normalised: Undig_37C = 1, Dig_37C = 0) [1, 7]: -0.02825
- EASY_mean [2]: -0.04602

Sequence: VAIKTSPKAN [EX1011]
- EZ_mean [1, 9]: -0.03763
- EASY_mean ([2]; ELISA signal, mean, […]): -0.005285

Sequence: LMPFGSLLD [CS1012, probably meant CS1032]
- EZ_mean [1]: -0.06046
- EZ MHC-I stability with HLA-A*11:01 single chain protein [1]: strongly stabilizing
- EASY_mean [2]: -0.02081

Sequence: IMQLMPFG [TM1007]
- EZ_mean [1, 10]: -0.09302
- EASY_mean ([2]; ELISA signal, mean, […]): -0.02903

Sequence: IKTSPKAN [EX1002]
- EZ_mean [1]: -0.02894
- EASY_mean [2]: -0.005748

Sequence: ITDFGRAKLLGA [LR1045]
- EZ_mean [1]: -0.0656
- EASY_mean [2]: -0.00307

Sequence: IKTSPKANKE [EX1013]
- EZ_mean [1, 9]: -0.04249
- EASY_mean ([2]; […], mean, STDEV): -0.007577

Sequence: TQLMPFGS [CS1001]
- EZ_mean [1]: -0.06222
- EASY_mean [2]: 0.00928

Sequence: LIMQLMPFGCL [TM1036]
- EZ_mean [1]: -0.1248
- EASY_mean ([2]; ELISA signal, mean, […]): -0.07162

Sequence: LIMQLMPFG [TM1015]
- EZ_mean ([1]; EASY MHC-I A*11:01, run 2019-08-07, 5min, mean of 2 replicates): -0.1155
- EASY_mean ([2]; […], mean, STDEV): -0.03975

Sequence: LIMQLMPF [TM1006]
- EZ_mean [1, 10]: -0.09815
- EASY_mean ([2]; […], mean, STDEV): -0.03127

Sequence: GSLLDYVREHK [CS1037]
- EZ_mean [1]: 0.3673
- EZ50kDa [1]: 0.367 ± 0.022
- vol [1]: 11854307
- Batch Mean [1]: 0.2216
- EASY_mean [2]: 0.5397
- vol [3]: 9517473
- Batch Mean [3]: -1.196

Sequence: DFGRAKLLGAEE [LR1047]
- EZ_mean [1]: -0.04163
- EASY_mean [2]: -0.01199

Sequence: GRAKLLGAEE [LR1026]
- EZ_mean [1]: -0.04989
- EASY_mean ([2]; […], mean, STDEV): -0.01509

Sequence: FGSLLDYVR [CS1015]
- EZ_mean [1]: -0.05849
- EASY_mean [2]: -0.01602

Sequence: VQLIMQLMPFGC [TM1045]
- EZ_mean [1]: -0.1164
- EASY_mean ([2]; ELISA signal, mean, […]): -0.05081

Sequence: MQLMPFGCLLDY [TM1050]
- EZ_mean [1]: 0.09599
- EZ50kDa [1]: 0.0956 ± 0.004
- vol [1]: 8153341
- Batch Mean [1]: 0.1072
- EASY_mean [2]: 0.2124
- vol [3]: 5027054
- Batch Mean [3]: -0.2574

Sequence: ICLTSTVQLIMQ [TM1039]
- EZ_mean [1]: -0.1704
- EASY_mean ([2]; ELISA signal, mean, […]): -0.09515

Sequence: TQLMPFGSL [CS1010]
- EZ_mean [1]: -0.05322
- EASY_mean [2]: -0.009401

Sequence: RAKLLGAEE [LR1017]
- EZ_mean [1]: -0.04971
- EASY_mean ([2]; […], mean, STDEV): -0.0266

Sequence: DFGRAKLL [LR1005]
- EZ_mean [1]: -0.05649
- EASY_mean ([2]; ELISA signal, mean, […]): -0.01718

Sequence: TQLMPFGSLLD [CS1031]
- EZ_mean [1]: -0.07663
- EASY_mean [2]: -0.03382

Sequence: PVAIKTSPKA [EX1010]
- EZ_mean [1, 9]: -0.04257
- EASY_mean ([2]; […], mean, STDEV): -0.007707

Sequence: KTSPKANKE [EX1008]
- EZ_mean [1, 9]: -0.03131
- EASY_mean ([2]; […], mean, STDEV): -0.00166

Sequence: LMPFGSLL [CS1003]
- EZ_mean [1]: -0.06827
- EASY_mean [2]: 0.002317

Sequence: PFGSLLDYVR [CS1024]
- EZ_mean [1]: -0.007587
- EASY_mean [2]: 0.06666

Sequence: FGRAKLLG [LR1006]
- EZ_mean [1]: -0.05388
- EASY_mean ([2]; ELISA signal, mean, […]): -0.01563

Sequence: FGRAKLLGA [LR1015]
- EZ_mean [1]: -0.04617
- EASY_mean ([2]; […], mean, STDEV): -0.02405

Sequence: TDFGRAKLLG [LR1023]
- EZ_mean [1]: -0.0651
- EASY_mean ([2]; […], mean, STDEV): -0.02398

Sequence: GSLLDYVR [CS1007]
- EZ_mean [1]: -0.06759
- EASY_mean [2]: -0.02696

Sequence: VQLIMQLMPFG [TM1034]
- EZ_mean [1]: -0.1329
- EASY_mean ([2]; ELISA signal, mean, […]): -0.07888

Sequence: FGRAKLLGAEE [LR1036]
- EZ_mean [1, 5]: -0.05281
- EZ50kD (normalised: EBV1101 = 1, EBV0201 = 0) [1, 6]: -0.07114
- Norm (50 kDa band adj. volume normalised: Undig_37C = 1, Dig_37C = 0) [1, 6]: -0.06733
- EZ50kD (normalised: EBV1101 = 1, EBV0201 = 0) [1, 7]: -0.03448
- Norm (50 kDa band adj. volume normalised: Undig_37C = 1, Dig_37C = 0) [1, 7]: -0.02973
- EASY_mean [2]: -0.04853
